Assay results reported in patent US11510899B2, “RTX toxin production inhibitor and composition for treating symptom of vibrio infection by using same” (priority 2018, dated 2022).

Experiments:
HlyU [1] = target: T1, HlyU (Vibrio vulnificus, UniProt A0A3Q0L222); test: High-throughput screening with E. coli reporter strain (pKK1306 + pZW1608 lux reporter); format: cell-based
T1 sequence (A0A3Q0L222 1-98): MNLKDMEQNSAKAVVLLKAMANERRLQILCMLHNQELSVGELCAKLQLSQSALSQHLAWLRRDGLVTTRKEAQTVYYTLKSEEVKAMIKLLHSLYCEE
Excerpt: Meanwhile, to perform E. coli reporter strain construction and high-throughput screening, a pKK1306 plasmid cloned to induce wild-type hlyU genes by arabinose was constructed. The reporter plasmid is pZW1608, in which the promoter of the VVMO6_00539 gene, expression of which is directly repressed by HlyU, is cloned in front of the bioluminescence operon (lux operon). These two plasmids were simultaneously transformed into E. coli DH5 to construct an E. coli reporter strain (FIG. 1). FIG. 1 is a schematic diagram illustrating the strategy used to screen selective inhibitors of HlyU.
For the screening, approximately 8400 low-molecular-weight compounds were obtained from Korea Compound Bank and used in this experiment. […] When the absorbance at 600 nm (A600) of the culture solution, which was cultured at 37° C., reached 0.5, 100 μl of the culture solution was transferred to a 96-well black plate. […] While culturing at 37° C., the growth and bioluminescence of the reporter strain were measured using an Infinite™ M200 microplate reader (Tecan, Mannedorf, Switzerland). The relative luminescence unit (RLU) was calculated through normalization by division of the measured luminescence value by the absorbance. RLU=luminescence/absorbance [Equation 1] […]

HlyU [2] = test: Amount of HlyU protein in cells of Vibrio vulnificus; format: cell-based; conditions: various concentrations, added at A600=0.2, harvested at A600=0.5, vs 2% DMSO
Protocol: In order to determine the mechanism by which the HlyU inhibitor CM2660 inhibited the activity of HlyU, Vibrio vulnificus was cultured at 30° C. and treated with various concentrations of CM2660 at A600=0.2. […] Then, the cell solution was centrifuged at A600=0.5, indicating the time when the intracellular amount of HlyU was maximized, and only the cell portion (pellet) was recovered. The recovered cells were chemically lysed to determine the amount of HlyU in each sample (FIG. 9).

Vibrio vulnificus [3] = test: Hemolytic activity of Vibrio vulnificus against erythrocytes; format: cell-based; conditions: culture supernatant at A600=1.0, different concentrations
Protocol: Meanwhile, the effect of CM2660 on the hemolytic activity against erythrocytes of Vibrio vulnificus was investigated. For this purpose, Vibrio vulnificus was cultured at 30° C. and treated with CM2660 at different concentrations at A600=0.2. […] The filtered supernatant was concentrated and mixed with erythrocytes diluted to 10% in PBS and cultured at 37° C. Hemolytic activity against erythrocytes was quantified by measuring absorbance at 540 nm (A540). A sample completely dissolved by treatment with 5% Triton X-100 instead of the supernatant was used as a positive control group and a sample using LBS medium was used as a negative control group.
Hemolytic activity was calculated using the following Equation 2, and is shown as a percentage (%) in FIG. 14.

INT-407 cells = test: In-vitro cytotoxicity, LDH release assay; format: cell-based, human; conditions: 1 to 500 μM, 3 hours, 5% Triton-X 100 = 100%
Protocol: In order to investigate the in-vitro cytotoxicity of CM2660, human epithelial cells, INT-407 cells were treated with Vibrio vulnificus (control) of MOI 10, and 1 to 500 μM of CM2660 or DMSO. After 3 hours, LDH release assay was performed and cytotoxicity was measured (FIG. 21). […] Cytotoxicity (%) was calculated with respect to the cytotoxicity obtained through treatment of 5% Triton-X 100 as 100%.

Vibrio vulnificus [4] = test: Mouse infection with Vibrio vulnificus, survival; format: in vivo; conditions: 1.4 mg/kg mixed with bacteria, subcutaneous, ICR female mice, vs DMSO
Protocol: (§1) In order to determine whether or not CM2660 also decreases the virulence of Vibrio vulnificus in vivo using 7-week-old ICR female mice, Vibrio vulnificus cultured at A600=0.5 at 30° C. was prepared. This was mixed with DMSO (10%) or CM2660 (1.4 mg/kg of mouse body weight) and the resulting mixture was subcutaneously injected into the back of mice anesthetized with isoflurane. In addition, only CM2660 was injected subcutaneously in order to determine the in-vivo toxicity of CM2660 (FIG. 22). FIG. 22 is a graph showing the results of observation of the expression of in-vivo toxicity of Vibrio vulnificus after injecting CM2660 into mice.

[5] = In-vivo toxicity of CM2660 injected alone; conditions: subcutaneous, ICR female mice
Protocol: as §1

Vibrio parahaemolyticus = test: Cytotoxicity of Vibrio parahaemolyticus; format: cell-based; conditions: CM2660 at different concentrations
[6] = tested on: exsA, va11668, vopQ, vopS and vopR; test: qRT-PCR of exsA and T3SS genes in Vibrio alginolyticus; format: cell-based; conditions: 20 μM, A600=0.5, vs 2% DMSO
Protocol: Vibrio alginolyticus is also a pathogenic Vibrio bacterium that has T3SS and is cytotoxic, similar to Vibrio parahaemolyticus. In order to determine the toxin inhibition effect of CM2660 in Vibrio alginolyticus, Vibrio alginolyticus was cultured in TSB (tryptic soy broth) medium supplemented with 1% NaCl.

O=C(C#Cc1ccccc1)Nc1scc2c1c(=O)oc1ccccc12 [CM2660, N-(4-oxo-4H-thieno[3,4-c]chromen-3-yl)-3-phenylprop-2-ynamide]
bioluminescence of E. coli reporter strains (HlyU [1]; 20 μM compound, 0.0002% arabinose, vs DMSO): significantly increased
HlyU inhibitory effect among the seven screened compounds (HlyU [1]; Example 1, E. coli and Vibrio reporter strains): best effect
amount of HlyU in the cells (HlyU [2]): no significant difference
hemolytic activity against erythrocytes (Vibrio vulnificus [3]): concentration-dependent decrease
cytotoxicity to INT-407 cells (INT-407 cells): almost no cytotoxicity
viability (survival) of mice infected with Vibrio vulnificus (Vibrio vulnificus [4]): significantly higher
in-vivo toxicity (survival after CM2660 alone) [5]: did not show in-vivo toxicity
cytotoxicity of Vibrio parahaemolyticus (Vibrio parahaemolyticus): decrease in the cytotoxicity
exsA mRNA level [6]: significantly reduced
va11668 mRNA level [6]: significantly reduced
vopQ mRNA level [6]: significantly reduced
vopR mRNA level [6]: significantly reduced
vopS mRNA level [6]: significantly reduced
